Measurements as given in patent publication EP4768484A1, “HETEROCYCLIC FUSED RING COMPOUND, AND COMPOSITION AND USE THEREOF” (Shenzhen TargetRx, Inc., priority 2023, dated 2025).

Legend:
Format in all cases: cell-based
K562 cells = experiment: Cell growth inhibitory activity assay (CellTiter-Glo), K562 cells; details: Homo sapiens, 72 h, CTG cell viability
Method in brief: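 K562 cells in logarithmic growth were counted, diluted and plated in 96-well plates, with medium-only blanks and a separate T0 plate read by CTG the following day. After overnight incubation, graded compound concentrations were added for 72 h, with 0.5% DMSO wells as growth controls. Luminescence was read on a Biotek cytation3.0, and IC50 came from nonlinear fitting in GraphPad Prism 7.0.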

[1] = target: T1, Ba/F3 BCR-ABL1 E255V/T315I (Homo sapiens, UniProt P00519+P11274, E255V/T315I); experiment: Cell growth inhibitory activity assay (CellTiter-Glo), Ba/F3 BCR-ABL1 E255V/T315I cells; details: 72 h, CTG cell viability
T1 construct: BCR (N-terminal fusion partner of the oncoprotein); expressed in transfected cells; host or cells: Ba/F3 (lentiviral transduction, monoclonal line)
Method: (§1) In this assay, the Celltiter-Glo (CTG) kit provided by Promega was used, and it is a homogeneous cell viability assay method. The cell viability of cultured cells was measured by quantifying ATP. K562 cells were purchased from Nanjing Kebai, product number CBP60529; Ba/F3 parental cells were purchased from RIKEN BRC, product number RCB0805; other cells containing BCR-ABL1 WT, BCR-ABL1 T315I, BCR-ABL1 T315M, BCR-ABL1 Y253H/E255K, BCR-ABL1 E255V/T3151, BCR-ABL1 A424T, BCR-ABL1 A337V, BCR-ABL1 P465S, BCR-ABL1 V468F, and BCR-ABL1 I502L were all monoclonal engineered cell lines obtained by transducting Ba/F3 parental cells with the lentivirus plasmids containing WT or corresponding mutated BCR-ABL1.
(§2) The steps of cell viability assay are as follows: • a) Cells in logarithmic growth phase were collected. Cell suspension was prepared and the cells were counted. Concentration of the cells was calculated. • b) The cell suspension was diluted to the required concentration and then added to the middle wells of a 96-well plate, and PBS was added to the edge wells. The wells with no cells and only culture medium were used as blank controls. • c) In addition to the cell plate used for compound analysis, another 96-well plate was prepared as a T0 plate, and 3-6 blank wells and 3-6 cell wells were added. The next day, CTG was used to test the cell viability as the T0 viability value of the cells. • d) The cell plate was incubated at 37 °C in a 5% CO2 incubator overnight. • e) The next day, each concentration of a compound subjected to a gradient dilution was added, and the cell plate was incubated at 37 °C in a 5% CO2 incubator for 72 h. The wells with no compound and only 0.5% DMSO were used as positive controls for cell growth. • f) CTG reagent (CellTiter-Glo kit) was added according to the manufacturer's instructions to test the cell viability value. • g) The plate was read using Biotek cytation3.0 microplate reader and the data were exported. • h) IC50 was calculated using GraphPad Prism 7.0 software.
(§3) The IC50 (half-maximal inhibitory concentration) of the compound was obtained using the following nonlinear fitting formula: Y = Bottom + (Top−Bottom)/(1+10^(∧)((LogIC50−X)*HillSlope)) [formula] • X: Log value of the compound concentration • Y: Inhibition rate (% inhibition) • Top: Maximum response • Bottom: Baseline response • HillSlope: Slope of the curve
(§4) The formula for calculating cell inhibition rate (inhibition rate %) was: [formula]

Ba/F3 BCR-ABL1 T315M = target: T2, Ba/F3 BCR-ABL1 T315M (Homo sapiens, UniProt P00519+P11274, T315M); experiment: Cell growth inhibitory activity assay (CellTiter-Glo), Ba/F3 BCR-ABL1 T315M cells; details: 72 h, CTG cell viability
T2 construct: BCR (N-terminal fusion partner of the oncoprotein); expressed in transfected cells; host or cells: Ba/F3 (lentiviral transduction, monoclonal line)
Method: as §1, §2, §3, §4

Ba/F3 BCR-ABL1 WT = target: T3, Ba/F3 BCR-ABL1 WT (Homo sapiens, UniProt P00519+P11274); experiment: Cell growth inhibitory activity assay (CellTiter-Glo), Ba/F3 BCR-ABL1 WT cells; details: 72 h, CTG cell viability
T3 construct: BCR (N-terminal fusion partner of the oncoprotein); expressed in transfected cells; host or cells: Ba/F3 (lentiviral transduction, monoclonal line)
Method in brief: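 Ba/F3 lines stably transduced by lentivirus with WT or mutant BCR-ABL1, alongside untransduced parental Ba/F3, were seeded and incubated overnight at 37 °C, 5% CO2, then exposed to serially diluted compound for 72 h. Viability was read as ATP by CellTiter-Glo luminescence against a day-of-dosing T0 plate; IC50 from four-parameter nonlinear fit.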

[2] = target: T4, Ba/F3 BCR-ABL1 Y253H/E255K (Homo sapiens, UniProt P00519+P11274, E255K/Y253H); experiment: Cell growth inhibitory activity assay (CellTiter-Glo), Ba/F3 BCR-ABL1 Y253H/E255K cells; details: 72 h, CTG cell viability
T4 construct: BCR (N-terminal fusion partner of the oncoprotein); expressed in transfected cells; host or cells: Ba/F3 (lentiviral transduction, monoclonal line)
Method: as §1, §2, §3, §4

Ba/F3 BCR-ABL1 T315I = target: T5, Ba/F3 BCR-ABL1 T315I (Homo sapiens, UniProt P00519+P11274, T315I); experiment: Cell growth inhibitory activity assay (CellTiter-Glo), Ba/F3 BCR-ABL1 T315I cells; details: 72 h, CTG cell viability
T5 construct: BCR (N-terminal fusion partner of the oncoprotein); expressed in transfected cells; host or cells: Ba/F3 (lentiviral transduction, monoclonal line)
Method in brief: (§5)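 IC50 values come from nonlinear fitting of % inhibition against log concentration, with viability taken as ATP content by CellTiter-Glo. Parental Ba/F3 or Ba/F3 monoclonal lines expressing lentivirally introduced mutant BCR-ABL1 were dosed for 72 h; controls included 0.5% DMSO wells and a T0 plate.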

Ba/F3 parental cells = experiment: Cell growth inhibitory activity assay (CellTiter-Glo), Ba/F3 parental cells; details: Mus musculus, BaF3, 72 h, CTG cell viability, read-out: IC50 Ba/F3 BCR-ABL1 Parental
Method in brief: as §5

Ba/F3 BCR-ABL1 A424T = target: T6, Ba/F3 BCR-ABL1 A424T (Homo sapiens, UniProt P00519+P11274, A424T); experiment: Cell growth inhibitory activity assay (CellTiter-Glo), Ba/F3 BCR-ABL1 A424T cells; details: 72 h, CTG cell viability
T6 construct: BCR (N-terminal fusion partner of the oncoprotein); expressed in transfected cells; host or cells: Ba/F3 (lentiviral transduction, monoclonal line)
Method: as §1, §2, §3, §4

Ba/F3 BCR-ABL1 I502L = target: T7, Ba/F3 BCR-ABL1 I502L (Homo sapiens, UniProt P00519+P11274, I502L); experiment: Cell growth inhibitory activity assay (CellTiter-Glo), Ba/F3 BCR-ABL1 I502L cells; details: 72 h, CTG cell viability
T7 construct: BCR (N-terminal fusion partner of the oncoprotein); expressed in transfected cells; host or cells: Ba/F3 (lentiviral transduction, monoclonal line)
Method: as §1, §2, §3, §4

Ba/F3 BCR-ABL1 A337V = target: T8, Ba/F3 BCR-ABL1 A337V (Homo sapiens, UniProt P00519+P11274, A337V); experiment: Cell growth inhibitory activity assay (CellTiter-Glo), Ba/F3 BCR-ABL1 A337V cells; details: 72 h, CTG cell viability
T8 construct: BCR (N-terminal fusion partner of the oncoprotein); expressed in transfected cells; host or cells: Ba/F3 (lentiviral transduction, monoclonal line)
Method: as §1, §2, §3, §4

Ba/F3 BCR-ABL1 P465S = target: T9, Ba/F3 BCR-ABL1 P465S (Homo sapiens, UniProt P00519+P11274, P465S); experiment: Cell growth inhibitory activity assay (CellTiter-Glo), Ba/F3 BCR-ABL1 P465S cells; details: 72 h, CTG cell viability
T9 construct: BCR (N-terminal fusion partner of the oncoprotein); expressed in transfected cells; host or cells: Ba/F3 (lentiviral transduction, monoclonal line)
Method: as §1, §2, §3, §4

Ba/F3 BCR-ABL1 V468F = target: T10, Ba/F3 BCR-ABL1 V468F (Homo sapiens, UniProt P00519+P11274, V468F); experiment: Cell growth inhibitory activity assay (CellTiter-Glo), Ba/F3 BCR-ABL1 V468F cells; details: 72 h, CTG cell viability
T10 construct: BCR (N-terminal fusion partner of the oncoprotein); expressed in transfected cells; host or cells: Ba/F3 (lentiviral transduction, monoclonal line)
Method: as §1, §2, §3, §4

Question: What does the source list for `C[C@@H]1COCc2nc3cc(C(=O)Nc4ccc(OC(F)(F)Cl)cc4)cc(-c4cnc5c(c4)C(=O)N(C4CC4)C5)c3n21` [T-25, (R)-N-(4-(chlorodifluoromethoxy)phenyl)-6-(6-cyclopropyl-5-oxo-6,7-dihydro-5H-pyrrolo[3,4-b]pyridin-3-yl)-4-methyl-3,4-dihydro-1H-benzo[4,5]imidazo[2,1-c][1,4]oxazine-8-carboxamide]?
Answer: IC50 (K562 cells): ≤ 5 nM; IC50 [1]: 5 to 50 nM; IC50 (Ba/F3 BCR-ABL1 T315M): > 1000 nM; IC50 (Ba/F3 BCR-ABL1 WT): ≤ 5 nM; IC50 [2]: 5 to 50 nM; IC50 (Ba/F3 BCR-ABL1 T315I): 5 to 50 nM; IC50 (Ba/F3 parental cells): > 1000 nM; IC50 (Ba/F3 BCR-ABL1 A424T): 5 to 50 nM

Question: `C[C@@H]1COCc2nc3cc(C(=O)Nc4ccc(OC(F)(F)Cl)cc4)cc(-c4cnc5c(c4)-c4nn(-c6ccncn6)cc4C5)c3n21` [T-67, (R)-N-(4-(chlorodifluoromethoxy)phenyl)-4-methyl-6-(2-(pyrimidin-4-yl)-2,4-dihydropyrazolo[3',4':3,4]cyclopenta[1,2-b]pyridin-7-yl)-3,4-dihydro-1H-benzo[4,5]imidazo[2,1-c][1,4]oxazine-8-carboxamide] was tested. Which IC50 (K562 cells) did it give?
Answer: The IC50 was at most 5 nM.

Question: What about the IC50 (Ba/F3 BCR-ABL1 WT) of the same molecule?
Answer: The IC50 was at most 5 nM.

Question: What about the IC50 [2] of the same molecule?
Answer: Its IC50 is at most 5 nM.

Question: What about the IC50 (Ba/F3 BCR-ABL1 T315I) of the same molecule?
Answer: The IC50 was at most 5 nM.

Question: And the IC50 (Ba/F3 parental cells)?
Answer: Its IC50 is over 1000 nM.

Question: With `C[C@@H]1COCc2nc3cc(C(=O)Nc4ccc(OC(F)(F)Cl)cc4)cc(-c4cnc5c(c4)-c4nn(-c6ncc(F)cn6)cc4C5)c3n21` [T-68, (R)-N-(4-(chlorodifluoromethoxy)phenyl)-6-(2-(5-fluoropyrimidin-2-yl)-2,4-dihydropyrazolo[3',4':3,4]cyclopenta[1,2-b]pyridin-7-yl)-4-methyl-3,4-dihydro-1H-benzo[4,5]imidazo[2,1-c][1,4]oxazine-8-carboxamide] as the molecule, how does the IC50 (K562 cells) read?
Answer: The IC50 was at most 5 nM.

Question: What about the IC50 (Ba/F3 BCR-ABL1 I502L) of the same molecule?
Answer: The IC50 was at most 5 nM.

Question: And the IC50 (Ba/F3 BCR-ABL1 A337V)?
Answer: Its IC50 is 5 to 50 nM.

Question: And the IC50 (Ba/F3 BCR-ABL1 T315M)?
Answer: Its IC50 is at most 5 nM.

Question: And the IC50 (Ba/F3 BCR-ABL1 WT)?
Answer: The IC50 was at most 5 nM.

Question: What about the IC50 (Ba/F3 BCR-ABL1 P465S) of the same molecule?
Answer: Its IC50 is 5 to 50 nM.

Question: What about the IC50 (Ba/F3 BCR-ABL1 V468F) of the same molecule?
Answer: Its IC50 is 5 to 50 nM.

Question: What about the IC50 (Ba/F3 BCR-ABL1 T315I) of the same molecule?
Answer: Its IC50 is at most 5 nM.

Question: What about the IC50 (Ba/F3 parental cells) of the same molecule?
Answer: Its IC50 is over 1000 nM.

Question: And the IC50 (Ba/F3 BCR-ABL1 A424T)?
Answer: The IC50 was at most 5 nM.

Question: `C[C@@H]1COCc2nc3cc(C(=O)Nc4ccc(OC(F)(F)Cl)cc4)cc(-c4cnc5c(c4)-c4nn(-c6ncc(C#N)cn6)cc4C5)c3n21` [T-78, (R)-N-(4-(chlorodifluoromethoxy)phenyl)-6-(2-(5-cyanopyrimidin-2-yl)-2,4-dihydropyrazolo[3',4':3,4]cyclopenta[1,2-b]pyridin-7-yl)-4-methyl-3,4-dihydro-1H-benzo[4,5]imidazo[2,1-c][1,4]oxazine-8-carboxamide] was tested. Which IC50 (K562 cells) did it give?
Answer: Its IC50 is at most 5 nM.

Question: And the IC50 [1]?
Answer: Its IC50 is at most 5 nM.

Question: What about the IC50 (Ba/F3 BCR-ABL1 WT) of the same molecule?
Answer: The IC50 was at most 5 nM.

Question: And the IC50 [2]?
Answer: The IC50 was at most 5 nM.

Question: And the IC50 (Ba/F3 BCR-ABL1 T315I)?
Answer: Its IC50 is at most 5 nM.

Question: What about the IC50 (Ba/F3 parental cells) of the same molecule?
Answer: Its IC50 is over 1000 nM.

Question: With `C[C@@H]1COCc2nc3cc(C(=O)Nc4ccc(OC(F)(F)Cl)cc4)cc(-c4cnc5c(c4)-c4nc(N)sc4C5)c3n21` [T-114, (R)-6-(2-amino-4H-thiazolo[4',5':3,4]cyclopenta[1,2-b]pyridin-7-yl)-N-(4-(chlorodifluoromethoxy)phenyl)-4-methyl-3,4-dihydro-1H-benzo[4,5]imidazo[2,1-c][1,4]oxazine-8-carboxamide] as the molecule, how does the IC50 (K562 cells) read?
Answer: Its IC50 is at most 5 nM.

Question: And the IC50 [1]?
Answer: Its IC50 is 50 to 1000 nM.

Question: What about the IC50 (Ba/F3 BCR-ABL1 T315M) of the same molecule?
Answer: Its IC50 is over 1000 nM.

Question: And the IC50 (Ba/F3 BCR-ABL1 WT)?
Answer: The IC50 was at most 5 nM.

Question: And the IC50 [2]?
Answer: The IC50 was 5 to 50 nM.

Question: What about the IC50 (Ba/F3 BCR-ABL1 T315I) of the same molecule?
Answer: Its IC50 is 5 to 50 nM.

Question: And the IC50 (Ba/F3 parental cells)?
Answer: Its IC50 is over 1000 nM.
